Structures can show the parent of a compound that is named as a salt. Where two headings read alike, the source gives them in different places.
Tests used:
[1] = molecular target: T1, EGFR (Homo sapiens, UniProt P00533); assay: EGFR in-cell Western (ICW) screening protocol (EGFR inhibition assay); type: cell-based; parameters: ICW 1 / ICW 2 / ICW Avg: unit not given here; conditions: for ICW Avg / ICW 1 / ICW 2: ICW assay; for ICW Avg: average of runs 1 and 2; for ICW 1: run 1; for ICW 2: run 2; for ICW assay: Table 10; for ICW assay / ICW Screen: % Inhibition of EGF dependent EGFR phosphorylation in A431 cells, compound 125 μM in assay; for ICW Screen: Table 11
T1 construct: host or cells: A431
T1 sequence (P00533 25-1210): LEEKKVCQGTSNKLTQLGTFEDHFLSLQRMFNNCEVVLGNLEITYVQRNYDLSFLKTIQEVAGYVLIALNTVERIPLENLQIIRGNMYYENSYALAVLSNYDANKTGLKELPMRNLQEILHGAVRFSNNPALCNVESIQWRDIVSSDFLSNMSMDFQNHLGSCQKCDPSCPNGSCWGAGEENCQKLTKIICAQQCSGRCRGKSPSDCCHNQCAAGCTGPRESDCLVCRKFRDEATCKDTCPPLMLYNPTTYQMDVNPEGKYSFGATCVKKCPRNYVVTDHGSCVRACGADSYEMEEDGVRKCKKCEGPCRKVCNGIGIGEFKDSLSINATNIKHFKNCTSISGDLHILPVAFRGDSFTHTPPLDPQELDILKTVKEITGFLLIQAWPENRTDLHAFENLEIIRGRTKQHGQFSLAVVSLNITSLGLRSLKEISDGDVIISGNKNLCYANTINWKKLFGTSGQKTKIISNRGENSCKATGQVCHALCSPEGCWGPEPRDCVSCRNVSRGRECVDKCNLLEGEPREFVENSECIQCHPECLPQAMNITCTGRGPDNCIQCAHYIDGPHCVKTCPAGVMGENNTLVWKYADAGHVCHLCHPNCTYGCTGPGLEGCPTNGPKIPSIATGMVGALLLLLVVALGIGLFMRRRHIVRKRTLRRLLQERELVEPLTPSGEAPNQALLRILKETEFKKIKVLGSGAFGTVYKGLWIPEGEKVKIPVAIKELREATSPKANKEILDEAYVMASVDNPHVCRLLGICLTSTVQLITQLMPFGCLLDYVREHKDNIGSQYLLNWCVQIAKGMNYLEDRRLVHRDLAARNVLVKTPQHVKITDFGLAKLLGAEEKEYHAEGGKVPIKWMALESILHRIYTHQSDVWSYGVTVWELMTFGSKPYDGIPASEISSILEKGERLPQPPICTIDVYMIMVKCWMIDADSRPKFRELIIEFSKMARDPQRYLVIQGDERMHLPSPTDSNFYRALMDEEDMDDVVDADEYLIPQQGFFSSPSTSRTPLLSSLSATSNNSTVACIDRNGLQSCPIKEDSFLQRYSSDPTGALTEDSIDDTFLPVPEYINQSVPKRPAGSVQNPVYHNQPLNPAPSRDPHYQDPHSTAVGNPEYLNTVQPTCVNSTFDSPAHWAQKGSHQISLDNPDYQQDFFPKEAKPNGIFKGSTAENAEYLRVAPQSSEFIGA
How it was run: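 In-cell Western read-out: fixed A431 cells were co-stained for total EGFR and phospho-EGFR (Tyr1173; some runs Tyr1045). Before fixation, cells were serum-starved for 2 h, exposed to compound for 4 h, then given EGF for 10 min, usually at 10 ng/ml final (6.6 or 12.5 ng/ml in some runs).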

[2] = test system: epithelial carcinoma A431 cell line; assay: MTT Cell Proliferation Assay, A431 cells; type: cell-based; conditions: for MTT Assay IC50(A431/MDBK): ratio in parentheses: ratio MDBK IC50 / A431 IC50 (selectivity); for MTT Follow-up: ratio in parentheses: ratio MDBK/A431
How it was run: (§1)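 Each concentration ran in quadruplicate across duplicate plates, with compounds serially diluted in DMSO and delivered at 0.5% DMSO in 0.5% FBS medium for 3 days.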

[3] = test system: MDBK line; assay: MTT Cell Proliferation Assay, MDBK cells; type: cell-based, bovine
How it was run: as §1

[4] = Homo sapiens, A-431, A431 cells, first value of cell, read-out: MTT Assay IC50(A431/MDBK): A431
[5] = Bos taurus, MDBK, MDBK cells, second value of cell, read-out: MTT Assay IC50(A431/MDBK): MDBK
[6] = Homo sapiens, A-431, 72 h, Table 10, first of x/y(ratio): A431, three day treatment, unit not printed (doses in μM), read-out: MTT assay (first value)
[7] = Bos taurus, MDBK, 72 h, Table 10, second of x/y(ratio): MDBK, three day treatment, unit not printed (doses in μM), read-out: MTT assay (second value)
[8] = Homo sapiens, A-431, first value of 'a/b (c)', taken as A431 cells, read-out: MTT Screen, first value of cell
[9] = Bos taurus, MDBK, second value of 'a/b (c)', taken as MDBK cells, read-out: MTT Screen, second value of cell
[10] = Table 10, second of x/y(ratio): MDBK, three day treatment, unit not printed (doses in μM), read-out: MTT assay (second value)
[11] = Homo sapiens, A-431, Table 11, first of x/y(ratio): A431, unit not printed (doses in μM), read-out: MTT Screen (first value)
[12] = Bos taurus, MDBK, Table 11, second of x/y(ratio): MDBK, unit not printed (doses in μM), read-out: MTT Screen (second value)
[13] = Homo sapiens, A-431, follow-up MTT, A431 cells, first value, read-out: MTT Follow-up: A431
[14] = Bos taurus, MDBK, follow-up MTT, MDBK cells, second value, read-out: MTT Follow-up: MDBK
[15] = first value of 'a/b (c)', taken as A431 cells, read-out: MTT Screen, first value of cell

Compound | ICW Avg [1] | ICW 1 [1] | ICW 2 [1] | IC50 [2, 4] | IC50 [3, 5] | ICW Screen (ICW Inhibition) [1] | IC50 [3, 9] | other results
CCOc1ccc2nc(Nc3nc(C)c(CCC(C)C)c(=O)[nH]3)nc(C)c2c1 [12684 + TFA] | 28.28 | 40.81 | 15.75 | 25.7 µM | 19.5 µM |  |  | MTT Assay IC50(A431/MDBK): ratio in parentheses [2]: 0.76
CC1CCc2cc(F)ccc2N1S(=O)(=O)c1ccc(NC(=S)Nc2ccc(Br)cc2)cc1 (stereo not drawn) [AD4-12813] |  |  |  |  |  |  |  | ICW assay [1]: 26.1431; IC50 [2, 6]: 11.8 µM; IC50 [3, 7]: 13.6 µM
CCCc1cc(=O)[nH]c(Nc2nc(C)c3ccc(OC)cc3n2)n1 [12669 + TFA] | 25.42 | 11.73 | 39.10 | 49.3 µM | 36.7 µM |  |  | MTT Assay IC50(A431/MDBK): ratio in parentheses [2]: 0.74
CN(Cc1ccccc1)S(=O)(=O)c1ccc(NC(=S)NC(=O)/C=C/c2ccccc2)cc1 [AD4-12126] |  |  |  |  |  | 37.795 | 41.9 µM | IC50 [2, 8]: 14.9 µM
Cc1cc(C)nc(Nc2nc(N)c3ccccc3n2)n1 [compound 11829] | 65.68 | 62.56 | 68.79 | 19.6 µM | 16.2 µM |  |  | 
CC1CCc2cc(F)ccc2N1S(=O)(=O)c1ccc(NC(=S)Nc2cccc(F)c2)cc1 (stereo not drawn) [AD4-12837] |  |  |  |  |  |  |  | ICW assay [1]: 35.1542; IC50 [2, 6]: 6.28 µM; IC50 [3, 7]: 5.68 µM
CC(C)CC(=O)NC(=S)Nc1ccc(S(=O)(=O)NCCc2ccccc2)cc1 [AD4-10608] |  |  |  |  |  | 62.846 | 5.35 µM | IC50 [2, 8]: 6.33 µM
COc1ccccc1/C=C/C(=O)NC(=S)Nc1ccc(S(=O)(=O)Nc2nc(C)cc(C)n2)cc1 [AD4-12148] |  |  |  |  |  | 51.845 | 39.2 µM | IC50 [2, 8]: 42.8 µM
Cc1ccc2nc(Nc3nc(C)cc(C(F)(F)F)n3)nc(C)c2c1 [11816 + TFA] | 26.67 | 39.76 | 13.58 | 14.2 µM | 28.1 µM |  |  | MTT Assay IC50(A431/MDBK): ratio in parentheses [2]: 1.99
CCN(c1ccccc1)S(=O)(=O)c1ccc(NC(=S)Nc2ccccc2)cc1 [AD4-12389] |  |  |  |  |  |  |  | ICW assay [1]: 72.5659; IC50 ([2]; Table 10, first of x/y(ratio): A431, three day treatment, unit not printed (doses in μM), read-out: MTT assay (first value)): 12.2 µM; IC50 [3, 10]: 6.07 µM
Cc1ccc(NC(=S)Nc2ccc(S(=O)(=O)Nc3cc(Cl)cc(Cl)c3)cc2)cc1Cl [AD4-12522] |  |  |  |  |  |  |  | ICW assay [1]: 123.893; IC50 [2, 6]: 6.2 µM; IC50 [3, 7]: 5.33 µM
COc1ccc(NS(=O)(=O)c2ccc(NC(=S)NC(=O)CC(C)C)cc2)cc1 [AD4-12040] |  |  |  |  |  | 47.822 | 14.8 µM | IC50 [2, 8]: 17.1 µM
CCc1cc2c(CN3CCN(Cc4ccccc4)CC3)cc(=O)oc2cc1O [AD4-10186] |  |  |  |  |  |  |  | ICW Screen [1]: 47.518; IC50 [2, 11]: 40.1 µM; IC50 [3, 12]: 45.7 µM
COc1cccc2c(C)nc(Nc3nc(C)c(C)c(=O)[nH]3)nc12 [12723 + TFA] | 66.62 | 67.34 | 65.91 |  |  |  |  | IC50 ([2]; A431 cells, first value of cell, read-out: MTT Assay IC50(A431/MDBK): A431): 9.33 µM; MTT Assay IC50(A431/MDBK): ratio in parentheses [2]: 1.07; IC50 ([3]; MDBK cells, second value of cell, read-out: MTT Assay IC50(A431/MDBK): MDBK): 9.99 µM
COc1cccc2c(C)nc(Nc3nc(-c4ccccc4)cc(=O)[nH]3)nc12 [compound 11741] | 68.05 | 66.55 | 69.55 | 2.44 µM | 2.44 µM |  |  | IC50 [2, 13]: 51.5 µM; MTT Follow-up: ratio in parentheses [2]: 1.01; IC50 [3, 14]: 51.9 µM
COc1ccc(OCC(=O)NC(=S)Nc2ccc(S(=O)(=O)Nc3cc(C)cc(C)c3)cc2)cc1 [AD4-12165] |  |  |  |  |  | 36.632 | 12 µM | IC50 [2, 15]: 63.6 µM
Cc1ccc(SCc2cc(=O)[nH]c(Nc3nc(C)c4cc(C)cc(C)c4n3)n2)cc1 [11727 + TFA] | 31.05 | 37.00 | 25.09 | 35.1 µM | 16.1 µM |  |  | MTT Assay IC50(A431/MDBK): ratio in parentheses [2]: 0.46
COc1ccc(NS(=O)(=O)c2ccc(NC(=S)Nc3ccccc3C(F)(F)F)cc2)cc1 [AD4-12577] |  |  |  |  |  |  |  | ICW assay [1]: 29.4151; IC50 [2, 6]: 6.62 µM; IC50 [3, 7]: 5.92 µM
CN1CCN(S(=O)(=O)c2ccc(NC(=S)NC(=O)/C=C/c3cccs3)cc2)CC1 [AD4-12060] |  |  |  |  |  | 34.272 | 40.5 µM | IC50 [2, 8]: 48.5 µM
Cc1nc(Nc2nc(CSc3ccccn3)cc(=O)[nH]2)nc2ccccc12 [12623 + TFA] | 28.49 | 21.11 | 35.88 | 37.2 µM | 17 µM |  |  | MTT Assay IC50(A431/MDBK): ratio in parentheses [2]: 0.46
CCOc1ccccc1NC(=S)Nc1ccc(S(=O)(=O)Nc2ccc(Cl)cc2)cc1 [AD4-12521] |  |  |  |  |  |  |  | ICW assay [1]: 45.7824; IC50 [2, 6]: 6.99 µM; IC50 [3, 7]: 6.54 µM
COc1cc(NS(=O)(=O)c2ccc(NC(=S)NC(=O)/C=C/c3ccc(C)cc3)cc2)nc(OC)n1 [AD4-11874] |  |  |  |  |  | 32.474 | 39 µM | IC50 [2, 8]: 35 µM
Cc1ccc2nc(Nc3nc(-c4ccccc4C)cc(=O)[nH]3)nc(C)c2c1 [11785 + TFA] | 35.54 | 41.06 | 30.01 | 10.3 µM | 9.15 µM |  |  | IC50 [2, 13]: 24.8 µM; MTT Follow-up: ratio in parentheses [2]: 1.04; MTT Assay IC50(A431/MDBK): ratio in parentheses [2]: 0.88; IC50 [3, 14]: 25.9 µM
CN(c1ccccc1)S(=O)(=O)c1ccc(NC(=S)NC(=O)/C=C/c2ccc(F)cc2)cc1 [AD4-12280] |  |  |  |  |  | 41.439 | 17.7 µM | IC50 [2, 8]: 10.2 µM; IC50 [2, 15]: 5.76 µM; IC50 ([3]; second value of 'a/b (c)', taken as MDBK cells, read-out: MTT Screen, second value of cell): 21.2 µM
CCc1cc2c(CN3CCN(c4ccc(OC)cc4)CC3)cc(=O)oc2cc1O [AD4-10171] |  |  |  |  |  |  |  | ICW Screen [1]: 39.389; IC50 [2, 11]: 16.5 µM; IC50 [3, 12]: 21 µM
C=CCc1c(C)nc(Nc2nc(C)c3ccccc3n2)[nH]c1=O [12610 + TFA] | 31.33 | 41.25 | 21.42 | 50.4 µM | 19.6 µM |  |  | MTT Assay IC50(A431/MDBK): ratio in parentheses [2]: 0.39
CCN(c1ccccc1)S(=O)(=O)c1ccc(NC(=S)Nc2ccccc2)cc1 [AD4-11430] |  |  |  |  |  |  |  | ICW assay [1]: 27.1482; IC50 [2, 6]: 19.8 µM; IC50 [3, 10]: 16.8 µM
Cc1ccc(NS(=O)(=O)c2ccc(NC(=S)NC(=O)C(C)C)cc2)c(C)c1 [AD4-12062] |  |  |  |  |  | 34.268 | 18.8 µM | IC50 [2, 8]: 64.5 µM

— patent US20140179681A1, “METHODS AND COMPOSITIONS OF TARGETED DRUG DEVELOPMENT” (priority 2010, published 2014)
